{
  "source": "paper PMC11575553",
  "about": "(Chemical Science, 2024)",
  "data": [
    {"system": "SARS-CoV-2 dimerization loop (DL) RNA", "assay_type": "binding", "conditions": "2.5 μM peptide; 0.010 M HEPES pH 7.0, 0.30 M NaCl; average of two replicates", "values": [
      {"substance": "MGCKQLAKQL(pCaaF)Y (sidechain bridge or staple) [Peptide R4A]", "SPR response relative to parent peptide MG-FSS-m1": "comparable"},
      {"substance": "MGCKQLRKQA(pCaaF)Y (sidechain bridge or staple) [Peptide L7A]", "SPR response relative to parent peptide MG-FSS-m1": "lower"},
      {"substance": "MGCKALRKQL(pCaaF)Y (sidechain bridge or staple) [Peptide Q2A]", "SPR response relative to parent peptide MG-FSS-m1": "substantially lower"},
      {"substance": "MGCKQARKQL(pCaaF)Y (sidechain bridge or staple) [Peptide L3A]", "SPR response relative to parent peptide MG-FSS-m1": "substantially lower"},
      {"substance": "MGCKQLRKAL(pCaaF)Y (sidechain bridge or staple) [Peptide Q6A]", "SPR response relative to parent peptide MG-FSS-m1": "substantially higher"},
      {"substance": "MGCAQLRKQL(pCaaF)Y (sidechain bridge or staple) [Peptide K1A]", "SPR response relative to parent peptide MG-FSS-m1": "comparable"},
      {"substance": "MGCKQLRAQL(pCaaF)Y (sidechain bridge or staple) [Peptide K5A]", "SPR response relative to parent peptide MG-FSS-m1": "comparable"}
    ]}
  ]
}
